Laboratory results as given in patent US20250214991A1 (Oncopia Therapeutics, Inc. d/b/a/ SK Life Science Labs, priority 2022, published 2025).
Where a name gives a salt, the structure may show the parent alone. Read-outs that look alike come from different tables or passages of the source.

Columns and labels:
Type in all cases: cell-based
IKZF1 = IKZF1 (Homo sapiens (Human), UniProt Q13422+Q96SW2); experiment: In vitro IKZF1 HiBit Assay (HEK293T Flp-in-HiBiT-IKZF1 stable cell line)
Outline: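 Degradation was measured as loss of luminescence from the HiBiT-IKZF1 tag after 6 h compound treatment, with 0.1% final DMSO, in stable HEK293T Flp-in cells. Values were normalized to DMSO, giving the 50% degradation concentration and the maximal degradation range.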

IKZF2 [1] = molecular target: T1, IKZF2 (Homo sapiens (Human), UniProt Q96SW2+Q9UKS7); experiment: In vitro IKZF2 HiBit Assay (HEK293T Flp-in-HiBiT cells)
T1 sequence (Q9UKS7 whole entry): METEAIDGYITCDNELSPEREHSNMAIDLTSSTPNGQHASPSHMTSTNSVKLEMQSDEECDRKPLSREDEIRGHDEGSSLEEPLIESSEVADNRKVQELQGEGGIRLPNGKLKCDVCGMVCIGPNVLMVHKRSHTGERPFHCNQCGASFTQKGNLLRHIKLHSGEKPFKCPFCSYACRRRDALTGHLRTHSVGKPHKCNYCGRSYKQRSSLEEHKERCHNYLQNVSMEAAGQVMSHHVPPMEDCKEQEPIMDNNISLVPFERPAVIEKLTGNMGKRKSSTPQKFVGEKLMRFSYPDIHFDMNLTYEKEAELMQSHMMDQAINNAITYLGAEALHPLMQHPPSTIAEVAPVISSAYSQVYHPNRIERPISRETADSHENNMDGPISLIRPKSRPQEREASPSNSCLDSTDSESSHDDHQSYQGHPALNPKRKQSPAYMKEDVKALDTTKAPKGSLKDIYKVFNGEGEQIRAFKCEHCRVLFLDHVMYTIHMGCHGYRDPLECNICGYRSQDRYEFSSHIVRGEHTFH
T1 sequence (Q96SW2 whole entry): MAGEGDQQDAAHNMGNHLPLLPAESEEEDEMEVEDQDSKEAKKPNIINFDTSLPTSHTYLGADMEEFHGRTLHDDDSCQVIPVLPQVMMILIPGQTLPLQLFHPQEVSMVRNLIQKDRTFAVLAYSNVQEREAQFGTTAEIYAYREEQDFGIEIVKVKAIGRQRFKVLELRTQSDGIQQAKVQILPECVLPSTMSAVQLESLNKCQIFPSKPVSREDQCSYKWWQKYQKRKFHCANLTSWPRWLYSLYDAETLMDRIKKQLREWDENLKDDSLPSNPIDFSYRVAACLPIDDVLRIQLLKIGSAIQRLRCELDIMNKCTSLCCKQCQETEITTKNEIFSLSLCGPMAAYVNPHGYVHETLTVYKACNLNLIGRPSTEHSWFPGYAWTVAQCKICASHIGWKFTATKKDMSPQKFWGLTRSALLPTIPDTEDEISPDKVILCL
T1 sequence (Q16531 2-1140 partner): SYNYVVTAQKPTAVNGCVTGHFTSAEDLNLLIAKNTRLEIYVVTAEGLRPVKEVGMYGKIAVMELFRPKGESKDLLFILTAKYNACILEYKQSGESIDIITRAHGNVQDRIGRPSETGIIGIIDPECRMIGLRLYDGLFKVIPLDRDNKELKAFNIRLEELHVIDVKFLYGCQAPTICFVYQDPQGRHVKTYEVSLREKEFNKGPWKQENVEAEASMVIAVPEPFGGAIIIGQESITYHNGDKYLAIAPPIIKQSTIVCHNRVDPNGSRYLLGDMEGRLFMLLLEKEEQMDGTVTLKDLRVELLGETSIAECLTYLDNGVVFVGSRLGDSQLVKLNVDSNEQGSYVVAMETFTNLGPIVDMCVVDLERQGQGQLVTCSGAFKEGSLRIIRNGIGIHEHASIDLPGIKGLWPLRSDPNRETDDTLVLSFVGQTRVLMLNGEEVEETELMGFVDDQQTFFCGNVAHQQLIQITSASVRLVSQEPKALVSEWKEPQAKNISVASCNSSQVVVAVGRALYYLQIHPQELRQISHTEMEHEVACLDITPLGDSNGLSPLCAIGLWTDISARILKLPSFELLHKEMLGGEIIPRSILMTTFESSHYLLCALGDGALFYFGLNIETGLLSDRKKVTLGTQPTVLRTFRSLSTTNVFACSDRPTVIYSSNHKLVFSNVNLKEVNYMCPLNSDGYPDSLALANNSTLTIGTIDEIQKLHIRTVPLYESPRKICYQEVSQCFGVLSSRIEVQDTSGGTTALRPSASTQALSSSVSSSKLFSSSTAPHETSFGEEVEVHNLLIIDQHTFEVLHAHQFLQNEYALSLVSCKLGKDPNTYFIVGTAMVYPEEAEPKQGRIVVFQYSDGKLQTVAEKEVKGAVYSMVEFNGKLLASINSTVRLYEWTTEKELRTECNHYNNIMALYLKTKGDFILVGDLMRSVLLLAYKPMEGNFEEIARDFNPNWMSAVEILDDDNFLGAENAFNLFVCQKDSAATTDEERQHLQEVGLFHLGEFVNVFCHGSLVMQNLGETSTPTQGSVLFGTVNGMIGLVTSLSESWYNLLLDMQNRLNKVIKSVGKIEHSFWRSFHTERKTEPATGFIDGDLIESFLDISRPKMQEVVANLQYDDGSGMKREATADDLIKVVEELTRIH
Outline: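 Remaining tagged Helios was read as lytic HiBiT/LgBiT luminescence normalized to DMSO, yielding binned DC50 and Dmax values. Treatment ran 6 h, with compounds at 11 three-fold doses diluted from 1 mM and 0.1% final DMSO. The cells were HEK293T Flp-in with CRISPR knock-in of HiBiT at the IKZF2 N-terminus.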

IKZF2 [2] = molecular target: T1, IKZF2; experiment: In vitro IKZF2 FACS Assay in Jurkat cells; conditions: 24 hrs; for DC50: half maximal degradation concentration; for Dmax: maximal degradation percentage
Experimental: In vitro IKZF2 FACS Assay
DC50, A: <1 nM; B: 1-10 nM; C: 10-100 nM; D: 100-1000 nM; E: >1000 nM. Dmax, A: >80%; B: 60-80%; C: 40-60%; D: 20-40%; E: <20%.

[3] = HEK293T Flp-in-HiBiT-IKZF1 stable cell line, 6 hrs incubation; read-out: IKZF1 HiBit DC50
[4] = HEK-293T; HEK293T Flp-in-HiBiT-IKZF1 stable cell line, 6 hrs incubation; read-out: IKZF1 HiBit Dmax (%)
[5] = HEK293T Flp-in-HiBiT cells, 6 hrs incubation; read-out: IKZF2 HiBit DC50
[6] = HEK-293T; HEK293T Flp-in-HiBiT cells, 6 hrs incubation; read-out: IKZF2 HiBit Dmax (%)

Sequence of IKZF1 (Q13422 whole entry): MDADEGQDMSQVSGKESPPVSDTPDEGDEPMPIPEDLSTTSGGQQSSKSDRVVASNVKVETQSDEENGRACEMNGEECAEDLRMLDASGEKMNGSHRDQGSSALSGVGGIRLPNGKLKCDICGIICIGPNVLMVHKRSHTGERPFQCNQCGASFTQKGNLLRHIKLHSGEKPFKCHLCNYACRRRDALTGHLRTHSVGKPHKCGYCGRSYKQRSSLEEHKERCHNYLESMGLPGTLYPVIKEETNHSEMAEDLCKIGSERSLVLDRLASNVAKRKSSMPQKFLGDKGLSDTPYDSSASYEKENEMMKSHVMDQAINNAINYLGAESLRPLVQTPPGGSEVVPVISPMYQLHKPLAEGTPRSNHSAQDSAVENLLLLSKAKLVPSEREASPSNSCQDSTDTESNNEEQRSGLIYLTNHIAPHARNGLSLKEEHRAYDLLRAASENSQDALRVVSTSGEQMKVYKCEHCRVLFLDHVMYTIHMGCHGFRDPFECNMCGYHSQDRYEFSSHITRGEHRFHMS
Sequence of IKZF1 (Q96SW2 whole entry): as the sequence (Q96SW2 whole entry) above
Sequence of IKZF1 (Q16531 2-1140 partner): as the sequence (Q16531 2-1140 partner) above

Row | Compound | DC50 (IKZF1; [3]) [nM] | Dmax (IKZF1; [4]) [%] | DC50 (IKZF2 [1]; [5]) [nM] | Dmax (IKZF2 [1]; [6]) [%] | DC50 (IKZF2 [2]) [nM] | Dmax (IKZF2 [2]) [%] | Dmax (IKZF1; HEK-293T, read-out: IKZF1 HiBit Dmax (%)) [%] | DC50 (IKZF1; read-out: IKZF1 HiBit DC50; HEK293T Flp-in-HiBiT-IKZF1 stable cell line, 6 hrs incubation) [nM] | Dmax (IKZF2 [1]; HEK-293T, read-out: IKZF2 HiBit Dmax (%)) [%] | DC50 (IKZF2 [1]; read-out: IKZF2 HiBit DC50; HEK293T Flp-in-HiBiT cells, 6 hrs incubation) [nM]
1 | O=C1CCC(N2Cc3cc(-c4cc(CN5CCCC5)c5nccc(OC(F)F)c5n4)ccc3C2=O)C(=O)N1 (stereo not drawn) [Example 249, 3-(5-(8-(difluoromethoxy)-4-(pyrrolidin-1-ylmethyl)-1,5-naphthyridin-2-yl)-1-oxoisoindolin-2-yl) piperidine-2,6-dione] | > 10000 | < 20 | 1 to 10 | > 80 | 1 to 10 | > 80 | – | – | – | –
2 | CC1(C)CCCN1Cc1cc(-c2ccc3c(c2)CN(C2CCC(=O)NC2=O)C3=O)nc2c1ccn2C1COC1 (stereo not drawn) [Example 254, 3-(5-(4-((2,2-dimethylpyrrolidin-1-yl)methyl)-1-(oxetan-3-yl)-1H-pyrrolo[2,3-b]pyridin-6-yl)-1-oxoisoindolin-2-yl) piperidine-2,6-dione] | – | – | – | – | 10 to 100 | 60 to 80 | < 20 | > 10000 | 60 to 80 | 1 to 10
3 | COC1CC(n2ccc3c(CN4CCCC4)cc(-c4ccc5c(c4)CN(C4CCC(=O)NC4=O)C5=O)nc32)C1 (stereo not drawn) [Example 255, 3-(5-(1-(3-methoxycyclobutyl)-4-(pyrrolidin-1-ylmethyl)-1H-pyrrolo[2,3-b]pyridin-6-yl)-1-oxoisoindolin-2-yl) piperidine-2,6-dione] | 10 to 100 | 20 to 40 | 1 to 10 | > 80 | 1 to 10 | > 80 | – | – | – | –
4 | CN1CC(n2ncc3c(CN4CCCC4)cc(-c4ccc5c(c4)CN(C4CCC(=O)NC4=O)C5=O)nc32)C1 (stereo not drawn) [Example 261, 3-(5-(1-(1-methylazetidin-3-yl)-4-(pyrrolidin-1-ylmethyl)-1H-pyrazolo[3,4-b]pyridin-6-yl)-1-oxoisoindolin-2-yl) piperidine-2,6-dione] | 10 to 100 | 60 to 80 | 1 to 10 | > 80 | 1 to 10 | > 80 | – | – | – | –
5 | O=C1CCC(N2Cc3cc(-c4cc(CN5CCCCC56CC6)c5ccn(C6COC6)c5n4)ccc3C2=O)C(=O)N1 (stereo not drawn) [Example 264, 3-(5-(4-((4-azaspiro[2.5]octan-4-yl)methyl)-1-(oxetan-3-yl)-1H-pyrrolo[2,3-b]pyridin-6-yl)-1-oxoisoindolin-2-yl) piperidine-2,6-dione] | > 10000 | < 20 | 1 to 10 | 60 to 80 | 10 to 100 | 40 to 60 | – | – | – | –
6 | Cn1ccc(-n2ccc3c(CN4CCCC4)cc(-c4ccc5c(c4)CN([C@H]4CCC(=O)NC4=O)C5=O)nc32)n1 [Example 265, (S)-3-(5-(1-(1-methyl-1H-pyrazol-3-yl)-4-(pyrrolidin-1-ylmethyl)-1H-pyrrolo[2,3-b]pyridin-6-yl)-1-oxoisoindolin-2-yl) piperidine-2,6-dione] | > 10000 | < 20 | 1 to 10 | > 80 | 1 to 10 | 60 to 80 | – | – | – | –
7 | COC1CCN(Cc2cc(-c3ccc4c(c3F)CN(C3CCC(=O)NC3=O)C4=O)nc3c2ccn3C2CS(=O)(=O)C2)CC1 (stereo not drawn) [Example 266, 3-(5-(1-(1,1-dioxidothietan-3-yl)-4-((4-methoxypiperidin-1-yl)methyl)-1H-pyrrolo[2,3-b]pyridin-6-yl)-4-fluoro-1-oxoisoindolin-2-yl) piperidine-2,6-dione formate] | 10 to 100 | 40 to 60 | 1 to 10 | > 80 | 1 to 10 | > 80 | – | – | – | –
8 | O=C1CCC(N2Cc3c(ccc(-c4cc(CN5CCC(F)CC5)c5ccn(C6CS(=O)(=O)C6)c5n4)c3F)C2=O)C(=O)N1 (stereo not drawn) [Example 268, 3-(5-(1-(1,1-dioxidothietan-3-yl)-4-((4-fluoropiperidin-1-yl)methyl)-1H-pyrrolo[2,3-b]pyridin-6-yl)-4-fluoro-1-oxoisoindolin-2-yl) piperidine-2,6-dione] | 10 to 100 | 40 to 60 | < 1 | > 80 | 1 to 10 | > 80 | – | – | – | –
9 | O=C1CCC(N2Cc3c(ccc(-c4nc5c(ccn5C5COC5)c(CN5CCCC5)c4Cl)c3F)C2=O)C(=O)N1 (stereo not drawn) [Example 270, 3-(5-(5-chloro-1-(oxetan-3-yl)-4-(pyrrolidin-1-ylmethyl)-1H-pyrrolo[2,3-b]pyridin-6-yl)-4-fluoro-1-oxoisoindolin-2-yl) piperidine-2,6-dione] | > 10000 | < 20 | < 1 | > 80 | 1 to 10 | > 80 | – | – | – | –
10 | O=C1CCC(N2Cc3cc(-c4cc(CN5CCCC5)c5ccn(C6CC(F)(F)C6)c5n4)ccc3C2=O)C(=O)N1 (stereo not drawn) [Example 274, 3-(5-(1-(3,3-difluorocyclobutyl)-4-(pyrrolidin-1-ylmethyl)-1H-pyrrolo[2,3-b]pyridin-6-yl)-1-oxoisoindolin-2-yl) piperidine-2,6-dione] | 1000 to 10000 | 20 to 40 | < 1 | > 80 | 1 to 10 | 60 to 80 | – | – | – | –

Now from value to compound, other results behind:

Row | DC50 (IKZF1; [3]) [nM] | Dmax (IKZF1; [4]) [%] | DC50 (IKZF2 [1]; [5]) [nM] | Dmax (IKZF2 [1]; [6]) [%] | DC50 (IKZF2 [2]) [nM] | Dmax (IKZF2 [2]) [%] | Compound | Dmax (IKZF1; HEK-293T, read-out: IKZF1 HiBit Dmax (%)) [%] | DC50 (IKZF1; read-out: IKZF1 HiBit DC50; HEK293T Flp-in-HiBiT-IKZF1 stable cell line, 6 hrs incubation) [nM] | Dmax (IKZF2 [1]; HEK-293T, read-out: IKZF2 HiBit Dmax (%)) [%] | DC50 (IKZF2 [1]; read-out: IKZF2 HiBit DC50; HEK293T Flp-in-HiBiT cells, 6 hrs incubation) [nM]
11 | 100 to 1000 | 20 to 40 | < 1 | > 80 | < 1 | > 80 | Cn1cc(-n2ccc3c(CN4CCCC4)cc(-c4ccc5c(c4)CN(C4CCC(=O)NC4=O)C5=O)nc32)cn1 (stereo not drawn) [Example 248, 3-(5-(1-(1-methyl-1H-pyrazol-4-yl)-4-(pyrrolidin-1-ylmethyl)-1H-pyrrolo[2,3-b]pyridin-6-yl)-1-oxoisoindolin-2-yl) piperidine-2,6-dione] | – | – | – | –
12 | > 10000 | < 20 | 1 to 10 | 60 to 80 | 1 to 10 | 60 to 80 | COC[C@@H]1CCCN1Cc1cc(-c2ccc3c(c2)CN(C2CCC(=O)NC2=O)C3=O)nc2c1ccn2C1COC1 (stereo partly drawn) [Example 250, 3-(5-(4-(((S)-2-(methoxymethyl)pyrrolidin-1-yl)methyl)-1-(oxetan-3-yl)-1H-pyrrolo[2,3-b]pyridin-6-yl)-1-oxoisoindolin-2-yl) piperidine-2,6-dione] | – | – | – | –
13 | 10 to 100 | 60 to 80 | 1 to 10 | > 80 | 1 to 10 | > 80 | CN1CC(n2ccc3c(CN4CCCC4)cc(-c4ccc5c(c4F)CN(C4CCC(=O)NC4=O)C5=O)nc32)C1 (stereo not drawn) [Example 260, 3-(4-fluoro-5-(1-(1-methylazetidin-3-yl)-4-(pyrrolidin-1-ylmethyl)-1H-pyrrolo[2,3-b]pyridin-6-yl)-1-oxoisoindolin-2-yl) piperidine-2,6-dione] | – | – | – | –
14 | 10 to 100 | 20 to 40 | 1 to 10 | > 80 | 1 to 10 | > 80 | O=C1CCC(N2Cc3c(ccc(-c4cc(CN5CC6COCC6C5)c5ccn(C6CS(=O)(=O)C6)c5n4)c3F)C2=O)C(=O)N1 (stereo not drawn) [Example 269, 3-(5-(1-(1,1-dioxidothietan-3-yl)-4-((tetrahydro-1H-furo[3,4-c]pyrrol-5 (3H)-yl)methyl)-1H-pyrrolo[2,3-b]pyridin-6-yl)-4-fluoro-1-oxoisoindolin-2-yl) piperidine-2,6-dione] | – | – | – | –
15 | 10 to 100 | 40 to 60 | 1 to 10 | > 80 | 1 to 10 | > 80 | O=C1CCC(N2Cc3c(ccc(-c4cc(CN5CCC6(CC5)COC6)c5ccn(C6CS(=O)(=O)C6)c5n4)c3F)C2=O)C(=O)N1 (stereo not drawn) [Example 272, 3-(5-(4-((2-oxa-7-azaspiro[3.5]nonan-7-yl)methyl)-1-(1,1-dioxidothietan-3-yl)-1H-pyrrolo[2,3-b]pyridin-6-yl)-4-fluoro-1-oxoisoindolin-2-yl) piperidine-2,6-dione] | – | – | – | –
16 | > 10000 | < 20 | 1 to 10 | 60 to 80 | 10 to 100 | 60 to 80 | Cc1cc2c(CN3CCCC3)cc(-c3ccc4c(c3)CN(C3CCC(=O)NC3=O)C4=O)nc2n1C1COC1 (stereo not drawn) [Example 275, 3-(5-(2-methyl-1-(oxetan-3-yl)-4-(pyrrolidin-1-ylmethyl)-1H-pyrrolo[2,3-b]pyridin-6-yl)-1-oxoisoindolin-2-yl) piperidine-2,6-dione] | – | – | – | –
17 | > 10000 | < 20 | 1 to 10 | > 80 | 1 to 10 | > 80 | CC1c2cc(-c3cc(CN4CCCC4)c4ccn(C5COC5)c4n3)ccc2C(=O)N1C1CCC(=O)NC1=O (stereo not drawn) [Example 276, 3-(3-methyl-5-(1-(oxetan-3-yl)-4-(pyrrolidin-1-ylmethyl)-1H-pyrrolo[2,3-b]pyridin-6-yl)-1-oxoisoindolin-2-yl) piperidine-2,6-dione] | – | – | – | –
